Source: patent US20120034193A1, “TREATMENT OF NEUROTROPHIC FACTOR MEDIATED DISORDERS” (priority 2009, published 2012)

Experiments:
Assay in all cases: Binding assay
Conditions in all cases: smilagenin 1 μM
Glutamate, NMDA, Agonism = system: Glutamate, NMDA, Agonism; set-up: species or system Rat
Method: (§1) The receptor binding was investigated using the following method: Sarsasapogenin was incubated with tissue or cell homogenate that expressed the receptor of interest and a known concentration a radiolabelled compound with affinity for the receptor of interest. After the incubation period the non-bound radiolabelled compound was removed and the amount of specific binding was quantified. The amount of specific binding in the presence and absence of sarsasapogenin were compared and the percent inhibition of the binding of the radiolabelled compound by sarsasapogenin was calculated. The source of the receptor, the incubation conditions, the radiolabelled compound used varied depending on each specific assay.
(§2) Using the same methods as described above, the binding of smilagenin (1 μM) to the receptors listed in Table 2 below, and the effect of smilagenin on the activity of the enzymes listed in Table 2 below, were investigated.

Glutamate, Kainate = system: Glutamate, Kainate; set-up: species or system Rat
Method: as §1, §2

[1] = system: Calcium Channel L-Type, Benzothiazepine; set-up: species or system Rat
Method: as §1, §2

[2] = system: Glutamate, NMDA, Phencyclidine; set-up: species or system Rat
Method: as §1, §2

Purinergic P2Y = system: Purinergic P2Y; set-up: species or system Rat
Method: as §1, §2

Gabapentin = system: Gabapentin; set-up: species or system Rat
Method: as §1, §2

Sodium Channel, Site 2 = system: Sodium Channel, Site 2; set-up: species or system Rat
Method: as §1, §2

Transporter, GABA = system: Transporter, GABA; set-up: species or system Rat
Method: as §1, §2

[3] = system: GABAA Flunitrazepam, Central; set-up: species or system Rat
Method: as §1, §2

Glutamate, AMPA = system: Glutamate, AMPA; set-up: species or system Rat
Method: as §1, §2

Potassium Channel [SKCA] = system: Potassium Channel [SKCA]; set-up: species or system Rat
Method: as §1, §2

Thyroid Hormone = system: Thyroid Hormone; set-up: species or system Rat
Method: as §1, §2

[4] = system: Glutamate, NMDA, Polyamine; set-up: species or system Rat
Method: as §1, §2

Imidazoline I2, central = system: Imidazoline I2, central; set-up: species or system Rat
Method: as §1, §2

[5] = system: Inositol trisphosphate IP3; set-up: species or system Rat
Method: as §1, §2

[6] = system: GABAA Chloride Channel, TBOB; set-up: species or system Rat
Method: as §1, §2

GABAA Muscimol, Central = system: GABAA Muscimol, Central; set-up: species or system Rat
Method: as §1, §2

[7] = system: Calcium Channel L-Type, Phenylalkylamine; set-up: species or system Rat
Method: as §1, §2

Potassium Channel [KA] = system: Potassium Channel [KA]; set-up: species or system Rat
Method: as §1, §2

[8] = system: Calcium Channel L-Type, Dihydropyridine; set-up: species or system Rat
Method: as §1, §2

Rolipram = system: Rolipram; set-up: species or system Rat
Method: as §1, §2

Somatostatin sst2 = Somatostatin sst2 (Homo sapiens, UniProt P30874)
Somatostatin sst2, sequence (P30874 whole entry): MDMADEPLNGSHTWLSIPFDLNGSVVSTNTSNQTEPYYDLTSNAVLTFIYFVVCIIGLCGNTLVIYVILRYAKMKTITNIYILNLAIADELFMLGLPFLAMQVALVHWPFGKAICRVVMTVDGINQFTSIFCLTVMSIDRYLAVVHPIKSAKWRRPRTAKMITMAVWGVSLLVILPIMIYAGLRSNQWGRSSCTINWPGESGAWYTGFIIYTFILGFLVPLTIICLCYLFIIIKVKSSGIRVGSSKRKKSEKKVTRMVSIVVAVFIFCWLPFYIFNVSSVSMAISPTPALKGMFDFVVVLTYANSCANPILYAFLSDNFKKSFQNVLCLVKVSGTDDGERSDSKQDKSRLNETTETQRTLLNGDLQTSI
Method in brief: (§3)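 Each target used its own receptor source, radioligand and incubation conditions. In all cases homogenate was incubated with labelled ligand at known concentration and compound at 1 μM, free label was removed, and specific binding in its presence versus absence gave percent inhibition.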

Prostanoid CRTH2 = Prostanoid CRTH2 (Homo sapiens, UniProt Q9Y5Y4)
Prostanoid CRTH2, sequence (Q9Y5Y4 whole entry): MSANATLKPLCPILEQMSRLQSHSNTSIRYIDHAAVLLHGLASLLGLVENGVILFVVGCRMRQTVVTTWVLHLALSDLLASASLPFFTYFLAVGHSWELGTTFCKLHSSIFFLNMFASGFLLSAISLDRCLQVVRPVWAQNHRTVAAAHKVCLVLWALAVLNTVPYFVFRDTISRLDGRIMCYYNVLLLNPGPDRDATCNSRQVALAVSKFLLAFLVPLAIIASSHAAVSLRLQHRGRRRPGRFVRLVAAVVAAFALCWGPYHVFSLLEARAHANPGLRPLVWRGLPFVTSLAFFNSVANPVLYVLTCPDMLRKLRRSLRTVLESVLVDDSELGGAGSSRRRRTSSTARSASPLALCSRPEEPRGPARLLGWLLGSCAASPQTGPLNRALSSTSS
Method in brief: as §3

Vanilloid = biological target: T1, Vanilloid (Rattus norvegicus, UniProt O35433)
T1 construct: host or cells: tissue or cell homogenate, not specified
T1 sequence (O35433 whole entry): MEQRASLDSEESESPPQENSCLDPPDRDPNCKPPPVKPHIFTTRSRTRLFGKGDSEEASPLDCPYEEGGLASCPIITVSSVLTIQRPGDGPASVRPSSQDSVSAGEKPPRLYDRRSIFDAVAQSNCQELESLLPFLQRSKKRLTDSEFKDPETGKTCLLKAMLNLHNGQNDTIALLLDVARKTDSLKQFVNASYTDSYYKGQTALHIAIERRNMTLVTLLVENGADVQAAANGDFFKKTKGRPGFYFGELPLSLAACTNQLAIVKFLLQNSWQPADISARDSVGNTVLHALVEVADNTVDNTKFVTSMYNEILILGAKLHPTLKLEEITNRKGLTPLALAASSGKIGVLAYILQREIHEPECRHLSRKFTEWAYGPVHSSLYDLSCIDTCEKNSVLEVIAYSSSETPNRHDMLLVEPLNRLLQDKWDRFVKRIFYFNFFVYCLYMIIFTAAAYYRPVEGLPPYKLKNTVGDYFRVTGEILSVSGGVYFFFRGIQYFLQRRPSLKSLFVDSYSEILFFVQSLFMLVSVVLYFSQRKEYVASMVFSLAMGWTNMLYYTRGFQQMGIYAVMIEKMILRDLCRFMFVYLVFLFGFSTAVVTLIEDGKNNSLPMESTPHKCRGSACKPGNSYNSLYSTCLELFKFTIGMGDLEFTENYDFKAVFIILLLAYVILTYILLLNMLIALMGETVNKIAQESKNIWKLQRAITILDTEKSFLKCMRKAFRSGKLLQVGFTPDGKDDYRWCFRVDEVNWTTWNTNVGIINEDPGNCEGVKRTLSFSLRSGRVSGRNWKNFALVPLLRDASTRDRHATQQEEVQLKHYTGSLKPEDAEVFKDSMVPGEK
Method in brief: as §3

Adrenergic α1A = Adrenergic α1A (Rattus norvegicus, UniProt P43140)
Adrenergic α1A, sequence (P43140 whole entry): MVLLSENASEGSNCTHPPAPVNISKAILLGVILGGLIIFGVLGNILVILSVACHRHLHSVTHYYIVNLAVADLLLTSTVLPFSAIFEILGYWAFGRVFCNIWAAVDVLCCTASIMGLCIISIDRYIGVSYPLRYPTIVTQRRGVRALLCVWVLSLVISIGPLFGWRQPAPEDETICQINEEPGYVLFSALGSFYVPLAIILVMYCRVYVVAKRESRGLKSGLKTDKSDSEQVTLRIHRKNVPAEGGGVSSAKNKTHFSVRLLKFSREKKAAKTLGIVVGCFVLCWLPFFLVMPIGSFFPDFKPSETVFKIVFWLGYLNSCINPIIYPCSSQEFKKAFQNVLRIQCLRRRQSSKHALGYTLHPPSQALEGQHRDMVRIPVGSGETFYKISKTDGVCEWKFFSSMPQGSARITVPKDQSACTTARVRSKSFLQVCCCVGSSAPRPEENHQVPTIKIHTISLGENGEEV
Method in brief: as §3

Melanocortin MC5 = Melanocortin MC5 (Homo sapiens, UniProt P33032)
Melanocortin MC5, sequence (P33032 whole entry): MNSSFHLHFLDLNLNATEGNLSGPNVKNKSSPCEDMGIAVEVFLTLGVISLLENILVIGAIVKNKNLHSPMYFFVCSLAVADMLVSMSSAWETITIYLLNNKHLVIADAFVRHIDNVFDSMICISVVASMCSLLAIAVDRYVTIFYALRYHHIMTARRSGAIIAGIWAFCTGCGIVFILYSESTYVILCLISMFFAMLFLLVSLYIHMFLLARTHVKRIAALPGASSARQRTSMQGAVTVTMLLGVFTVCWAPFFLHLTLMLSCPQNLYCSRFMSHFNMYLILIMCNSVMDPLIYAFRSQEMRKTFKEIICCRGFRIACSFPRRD
Method in brief: as §3

[9] = biological target: Prostanoid Thromboxane A2 (TP) (Homo sapiens, UniProt P21731)
Prostanoid Thromboxane A2 (TP), sequence (P21731 whole entry): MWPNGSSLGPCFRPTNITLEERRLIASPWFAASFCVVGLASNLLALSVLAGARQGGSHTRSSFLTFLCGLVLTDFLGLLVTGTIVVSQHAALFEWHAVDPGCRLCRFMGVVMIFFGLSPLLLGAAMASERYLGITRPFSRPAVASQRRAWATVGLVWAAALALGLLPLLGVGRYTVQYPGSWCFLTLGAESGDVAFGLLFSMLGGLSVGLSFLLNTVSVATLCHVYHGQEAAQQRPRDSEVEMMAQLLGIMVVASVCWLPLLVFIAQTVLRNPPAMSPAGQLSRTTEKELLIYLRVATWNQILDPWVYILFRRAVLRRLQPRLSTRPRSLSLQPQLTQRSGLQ
Method in brief: as §3

Potassium Channel [KATP] = system: Potassium Channel [KATP]
Method in brief: as §3

[10] = biological target: Leukotriene, Cysteinyl CysLT1 (Homo sapiens, UniProt Q9Y271)
Leukotriene, Cysteinyl CysLT1, sequence (Q9Y271 whole entry): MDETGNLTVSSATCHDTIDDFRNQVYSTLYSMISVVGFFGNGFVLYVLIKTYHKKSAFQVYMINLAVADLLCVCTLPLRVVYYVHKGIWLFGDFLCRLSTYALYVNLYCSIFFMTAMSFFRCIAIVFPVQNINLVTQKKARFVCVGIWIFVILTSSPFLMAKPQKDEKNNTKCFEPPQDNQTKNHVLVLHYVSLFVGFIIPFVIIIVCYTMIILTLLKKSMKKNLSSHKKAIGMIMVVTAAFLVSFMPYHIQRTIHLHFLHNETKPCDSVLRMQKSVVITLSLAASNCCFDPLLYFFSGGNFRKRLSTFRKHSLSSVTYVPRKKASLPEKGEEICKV
Method in brief: as §3

Angiotensin AT2 = Angiotensin AT2 (Homo sapiens, UniProt P50052)
Angiotensin AT2, sequence (P50052 whole entry): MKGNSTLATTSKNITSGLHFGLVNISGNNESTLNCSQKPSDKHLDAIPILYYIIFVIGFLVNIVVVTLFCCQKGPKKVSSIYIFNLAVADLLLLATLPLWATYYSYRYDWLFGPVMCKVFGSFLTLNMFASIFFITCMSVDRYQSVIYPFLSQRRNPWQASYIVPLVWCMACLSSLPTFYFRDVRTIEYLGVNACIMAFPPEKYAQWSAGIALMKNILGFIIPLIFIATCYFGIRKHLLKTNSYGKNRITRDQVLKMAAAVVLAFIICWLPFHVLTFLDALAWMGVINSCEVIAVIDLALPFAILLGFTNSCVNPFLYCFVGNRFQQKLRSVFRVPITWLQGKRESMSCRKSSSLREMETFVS
Method in brief: as §3

Purinergic P2X = system: Purinergic P2X
Method in brief: as §3

Glutamate, NMDA, Glycine = biological target: T2, Glutamate, NMDA, Glycine (Rattus norvegicus, UniProt P35439)
T2 construct: host or cells: tissue or cell homogenate (not specified)
Method in brief: as §3

Adrenergic α1D = Adrenergic α1D (Homo sapiens, UniProt P25100)
Adrenergic α1D, sequence (P25100 whole entry): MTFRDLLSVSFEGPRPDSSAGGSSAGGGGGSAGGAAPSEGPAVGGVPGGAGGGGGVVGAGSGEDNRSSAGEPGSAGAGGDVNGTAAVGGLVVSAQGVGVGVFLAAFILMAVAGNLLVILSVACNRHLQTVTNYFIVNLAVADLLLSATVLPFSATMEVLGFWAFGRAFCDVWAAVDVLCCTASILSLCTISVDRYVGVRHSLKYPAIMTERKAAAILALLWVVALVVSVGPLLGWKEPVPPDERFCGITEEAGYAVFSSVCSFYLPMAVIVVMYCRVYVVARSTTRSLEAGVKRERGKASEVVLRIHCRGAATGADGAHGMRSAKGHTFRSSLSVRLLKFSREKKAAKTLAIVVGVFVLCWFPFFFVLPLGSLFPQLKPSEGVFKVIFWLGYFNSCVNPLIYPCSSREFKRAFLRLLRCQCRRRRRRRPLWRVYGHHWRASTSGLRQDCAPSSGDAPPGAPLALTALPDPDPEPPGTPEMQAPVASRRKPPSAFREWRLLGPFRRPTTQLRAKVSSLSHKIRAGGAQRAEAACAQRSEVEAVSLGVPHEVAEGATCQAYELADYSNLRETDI
Method in brief: as §3

[11] = biological target: Thyrotropin Releasing Hormone (TRH) (Rattus norvegicus, UniProt Q01717)
Thyrotropin Releasing Hormone (TRH), sequence (Q01717 whole entry): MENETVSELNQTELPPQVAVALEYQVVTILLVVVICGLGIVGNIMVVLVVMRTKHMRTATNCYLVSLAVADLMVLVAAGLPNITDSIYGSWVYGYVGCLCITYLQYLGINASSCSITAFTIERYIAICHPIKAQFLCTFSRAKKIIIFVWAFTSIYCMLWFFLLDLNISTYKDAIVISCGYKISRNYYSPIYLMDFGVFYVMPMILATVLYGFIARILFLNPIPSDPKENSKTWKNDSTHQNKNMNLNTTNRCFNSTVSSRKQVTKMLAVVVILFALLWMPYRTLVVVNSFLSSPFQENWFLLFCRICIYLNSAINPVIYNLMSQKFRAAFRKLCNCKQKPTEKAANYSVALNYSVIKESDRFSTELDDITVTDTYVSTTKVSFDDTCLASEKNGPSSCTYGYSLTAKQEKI
Method in brief: as §3

Melanocortin MC4 = Melanocortin MC4 (Homo sapiens, UniProt P32245)
Melanocortin MC4, sequence (P32245 whole entry): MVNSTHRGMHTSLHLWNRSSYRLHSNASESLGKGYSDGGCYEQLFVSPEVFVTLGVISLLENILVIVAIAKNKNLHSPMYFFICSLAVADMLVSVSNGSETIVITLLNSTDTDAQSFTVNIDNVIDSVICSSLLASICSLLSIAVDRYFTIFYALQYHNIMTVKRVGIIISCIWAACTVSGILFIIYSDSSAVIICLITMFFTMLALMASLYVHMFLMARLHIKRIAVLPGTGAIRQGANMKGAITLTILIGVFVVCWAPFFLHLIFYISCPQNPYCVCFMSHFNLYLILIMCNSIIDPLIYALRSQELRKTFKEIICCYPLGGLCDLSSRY
Method in brief: as §3

C[C@@H]1CC[C@@]2(OC1)O[C@H]1C[C@H]3[C@@H]4CC[C@@H]5C[C@@H](O)CC[C@]5(C)[C@H]4CC[C@]3(C)[C@H]1[C@@H]2C [Smilagenin, smilagenin]
Effect (%) (Glutamate, NMDA, Agonism): NS (NS = No significant response. Significance was taken as ≧30% stimulation or inhibition) | Effect (%) (Glutamate, Kainate): NS (NS = No significant response. Significance was taken as ≧30% stimulation or inhibition) | Effect (%) [1]: NS (NS = No significant response. Significance was taken as ≧30% stimulation or inhibition) | Effect (%) [2]: NS (NS = No significant response. Significance was taken as ≧30% stimulation or inhibition) | Effect (%) (Purinergic P2Y): NS (NS = No significant response. Significance was taken as ≧30% stimulation or inhibition) | Effect (%) (Gabapentin): NS (NS = No significant response. Significance was taken as ≧30% stimulation or inhibition) | Effect (%) (Sodium Channel, Site 2): NS (NS = No significant response. Significance was taken as ≧30% stimulation or inhibition) | Effect (%) (Transporter, GABA): NS (NS = No significant response. Significance was taken as ≧30% stimulation or inhibition) | Effect (%) [3]: NS (NS = No significant response. Significance was taken as ≧30% stimulation or inhibition) | Effect (%) (Glutamate, AMPA): NS (NS = No significant response. Significance was taken as ≧30% stimulation or inhibition) | Effect (%) (Potassium Channel [SKCA]): NS (NS = No significant response. Significance was taken as ≧30% stimulation or inhibition) | Effect (%) (Thyroid Hormone): NS (NS = No significant response. Significance was taken as ≧30% stimulation or inhibition) | Effect (%) [4]: NS (NS = No significant response. Significance was taken as ≧30% stimulation or inhibition) | Effect (%) (Imidazoline I2, central): NS (NS = No significant response. Significance was taken as ≧30% stimulation or inhibition) | Effect (%) [5]: NS (NS = No significant response. Significance was taken as ≧30% stimulation or inhibition) | Effect (%) [6]: NS (NS = No significant response. Significance was taken as ≧30% stimulation or inhibition) | Effect (%) (GABAA Muscimol, Central): NS (NS = No significant response. Significance was taken as ≧30% stimulation or inhibition) | Effect (%) [7]: NS (NS = No significant response. Significance was taken as ≧30% stimulation or inhibition) | Effect (%) (Potassium Channel [KA]): NS (NS = No significant response. Significance was taken as ≧30% stimulation or inhibition) | Effect (%) [8]: NS (NS = No significant response. Significance was taken as ≧30% stimulation or inhibition) | Effect (%) (Rolipram): NS (NS = No significant response. Significance was taken as ≧30% stimulation or inhibition) | Effect (%) (Somatostatin sst2): NS (NS = No significant response. Significance was taken as ≧30% stimulation or inhibition) | Effect (%) (Prostanoid CRTH2): NS (NS = No significant response. Significance was taken as ≧30% stimulation or inhibition) | Effect (%) (Vanilloid): NS (NS = No significant response. Significance was taken as ≧30% stimulation or inhibition) | Effect (%) (Adrenergic α1A): NS (NS = No significant response. Significance was taken as ≧30% stimulation or inhibition) | Effect (%) (Melanocortin MC5): NS (NS = No significant response. Significance was taken as ≧30% stimulation or inhibition) | Effect (%) [9]: NS (NS = No significant response. Significance was taken as ≧30% stimulation or inhibition) | Effect (%) (Potassium Channel [KATP]): NS (NS = No significant response. Significance was taken as ≧30% stimulation or inhibition) | Effect (%) [10]: NS (NS = No significant response. Significance was taken as ≧30% stimulation or inhibition) | Effect (%) (Angiotensin AT2): NS (NS = No significant response. Significance was taken as ≧30% stimulation or inhibition) | Effect (%) (Purinergic P2X): NS (NS = No significant response. Significance was taken as ≧30% stimulation or inhibition) | Effect (%) (Glutamate, NMDA, Glycine): NS (NS = No significant response. Significance was taken as ≧30% stimulation or inhibition) | Effect (%) (Adrenergic α1D): NS (NS = No significant response. Significance was taken as ≧30% stimulation or inhibition) | Effect (%) [11]: NS (NS = No significant response. Significance was taken as ≧30% stimulation or inhibition) | Effect (%) (Melanocortin MC4): NS (NS = No significant response. Significance was taken as ≧30% stimulation or inhibition)
